We go through six compounds from US8828908B2, “Herbicidally active bicyclic 1,3-dione compounds” (Syngenta Limited, priority 2007, dated 2014).

SMILES strings stand for the structures.

Usually pest or weed control stands for how far the test organism was held down. Read a low pest or weed control as a weak effect.

Assay type in all cases: in vivo
The subject of test [1] is Amaranthus retroflexus (AMARE). Description: Example A pre-emergence herbicidal glasshouse test. The note with it: 312 h, Rate 250 g/ha, evaluated after 13 days, 100=total damage to plant, 0=no damage to plant. The procedure, abridged:
(§1)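 After sowing in standard soil, pots were cultivated 1 day (pre-emergence) or 8 days (post-emergence), then treated with an aqueous spray of the formulated active ingredient (acetone/water 50:50, 0.5% Tween 20). Phytotoxicity was assessed on a 0–100 scale at 13 days.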

Test [2] concerns Echinochloa crus-galli (ECHCG). Description: Example A pre-emergence herbicidal glasshouse test. The note with it: 312 h, Rate 250 g/ha, evaluated after 13 days, 100=total damage to plant, 0=no damage to plant. The gist of the method: as §1
The test system of test [3] is Avena fatua (AVEFA). As to the kind of experiment: Example A pre-emergence herbicidal glasshouse test. The note with it: 312 h, Rate 250 g/ha, evaluated after 13 days, 100=total damage to plant, 0=no damage to plant. The gist of the method:
as §1

Test [4] concerns Alopecurus myosuroides (ALOMY). Description: Example A pre-emergence herbicidal glasshouse test. The note with it: 312 h, Rate 250 g/ha, evaluated after 13 days, 100=total damage to plant, 0=no damage to plant. The gist of the method:
as §1

Test [5] has as its system Setaria faberi (SETFA). As to the kind of experiment: Example A pre-emergence herbicidal glasshouse test. The note with it: 312 h, Rate 250 g/ha, evaluated after 13 days, 100=total damage to plant, 0=no damage to plant. The gist of the method:
as §1

The test system of test [6] is Digitaria sanguinalis (DIGSA). As to the kind of experiment: Example B post-emergence herbicidal greenhouse test. The note with it: 360 h, evaluated after 15 days, 100=total damage to plant, 0=no damage. The method, then: (§2) Seeds of a variety of test species were sown in standard soil in pots. After cultivation for one day (pre-emergence) or after 10 days cultivation (post-emergence) under controlled conditions in a glasshouse, the plants were sprayed with an aqueous spray solution derived from the formulation of the technical active ingredient in 0.6 ml acetone and 45 ml formulation solution containing 10.6% Emulsogen EL (Registry number 61791-12-6), 42.2% N-methylpyrrolidone, 42.2% dipropylene glycol monomethyl ether (Registry number 34590-94-8) and 0.2% X-77 (Registry number 11097-66-8). The test plants were then grown in a greenhouse under optimum conditions until, 15 days later for post-emergence and 20 days for pre-emergence, the test was evaluated (100=total damage to plant; 0=no damage to plant).
(§3) Alopecurus myosuroides (ALOMY), Avena fatua (AVEFA), Lolium perenne (LOLPE), Setaria faberi (SETFA), Digitaria sanguinalis (DIGSA), Echinochloa crus-galli (ECHCG)

The subject of test [7] is Echinochloa crus-galli (ECHCG). Described as above. The note with it: 360 h, evaluated after 15 days, 100=total damage to plant, 0=no damage. As for the experimental part:
as §2, §3

The subject of test [8] is Avena fatua (AVEFA). The description is as above. The note with it: 360 h, evaluated after 15 days, 100=total damage to plant, 0=no damage. The method, then:
as §2, §3

The test system of test [9] is Alopecurus myosuroides (ALOMY). The test is described as above. The note with it: 360 h, evaluated after 15 days, 100=total damage to plant, 0=no damage. The method, then: as §2, §3
The subject of test [10] is Lolium perenne (LOLPE). The description is as above. The note with it: 360 h, evaluated after 15 days, 100=total damage to plant, 0=no damage. As for the experimental part:
as §2, §3

Test [11] has as its system Setaria faberi (SETFA). Described as above. The note with it: 360 h, evaluated after 15 days, 100=total damage to plant, 0=no damage. The method, then:
as §2, §3

Test [12] relates to Digitaria sanguinalis (DIGSA). As to the kind of experiment: Example B pre-emergence herbicidal greenhouse test. The note with it: 480 h, evaluated after 20 days, 100=total damage to plant, 0=no damage. As for the experimental part: as §2, §3
For test [13], the system named is Echinochloa crus-galli (ECHCG). Description: Example B pre-emergence herbicidal greenhouse test. The note with it: 480 h, evaluated after 20 days, 100=total damage to plant, 0=no damage. As for the experimental part:
as §2, §3

Test [14] relates to Avena fatua (AVEFA). As to the kind of experiment: Example B pre-emergence herbicidal greenhouse test. The note with it: 480 h, evaluated after 20 days, 100=total damage to plant, 0=no damage. As for the experimental part:
as §2, §3

For test [15], the system named is Alopecurus myosuroides (ALOMY). Description: Example B pre-emergence herbicidal greenhouse test. The note with it: 480 h, evaluated after 20 days, 100=total damage to plant, 0=no damage. The method, then:
as §2, §3

For test [16], the system named is Lolium perenne (LOLPE). As to the kind of experiment: Example B pre-emergence herbicidal greenhouse test. The note with it: 480 h, evaluated after 20 days, 100=total damage to plant, 0=no damage. The method, then: as §2, §3
The subject of test [17] is Setaria faberi (SETFA). As to the kind of experiment: Example B pre-emergence herbicidal greenhouse test. The note with it: 480 h, evaluated after 20 days, 100=total damage to plant, 0=no damage. The method, then:
as §2, §3

The test system of test [18] is Amaranthus retroflexus (AMARE). As to the kind of experiment: Example A post-emergence herbicidal glasshouse test. The note with it: 312 h, evaluated after 13 days, 100=total damage to plant, 0=no damage. The procedure, abridged: as §1
For test [19], the system named is Echinochloa crus-galli (ECHCG). The description is as above. The note with it: 312 h, evaluated after 13 days, 100=total damage to plant, 0=no damage. The procedure, abridged:
as §1

In test [20] the test system is Avena fatua (AVEFA). Described as above. The note with it: 312 h, evaluated after 13 days, 100=total damage to plant, 0=no damage. The procedure, abridged:
as §1

Test [21] has as its system Alopecurus myosuroides (ALOMY). The description is as above. The note with it: 312 h, evaluated after 13 days, 100=total damage to plant, 0=no damage. The gist of the method:
as §1

Test [22] relates to Setaria faberi (SETFA). Described as above. The note with it: 312 h, evaluated after 13 days, 100=total damage to plant, 0=no damage. The procedure, abridged: as §1

Consider `CCc1ccc(-c2ccc(Cl)cc2Cl)cc1C1=C(OC(=O)OC)[C@H]2CC[C@H](C2)C1=O` (single isomer, unassigned) [Compound P4, carbonic acid 3-(2′,4′-dichloro-4-ethylbiphen-3-yl)-4-oxo-bicyclo[3.2.1]oct-2-en-2-yl ester methyl ester], for which the pest or weed control at 250 g/ha was 40% in test [1]; 90% in [2]; 50% in test [3]; 80% in test [4]; 100% in [5]; 100% in [12]. Also, the pest or weed control at 250 g/ha in test [13] came out at 100%; in test [14], 70%; in [15], 90%; in [16] it was 90%; in test [17] it was 100%; in test [18], 0%. In addition, the pest or weed control at 250 g/ha in test [19] is 100%; in [20] it was 90%; in test [21], 100%; in test [22], 100%. The pest or weed control at 125 g/ha in test [6] amounted to 100%; in test [7], 100%; in test [8], 80%; in test [9], 100%; in test [10], 90%; in test [11] it was 100%.

Regarding `CCc1ccc(-c2ccc(Cl)cc2)cc1C1=C(O)[C@H]2C=C[C@H](CC2)C1=O` (single isomer, unassigned) [Compound T55], the pest or weed control at 250 g/ha in test [1] was 0%; in test [2], 70%; in test [3], 0%; in test [4], 0%; in [5], 90%; in test [12], 30%. Also, the pest or weed control at 250 g/ha came out at 50% in test [13]; 30% in test [14]; 10% in test [15]; 60% in test [16]; 10% in test [17]; 0% in test [18]. The pest or weed control at 250 g/ha in test [19] was found to be 100%; in test [20], 20%; in [21], 50%; in [22], 100%. In addition, the pest or weed control at 125 g/ha is 100% in test [6]; 100% in test [7]; 70% in test [8]; 60% in [9]; 80% in test [10]; 100% in [11].

As to `CCc1ccc(-c2ccc(Cl)c(Cl)c2)cc1C1=C(O)[C@H]2CC[C@H](C2)C1=O` (single isomer, unassigned) [Compound T35], the pest or weed control at 250 g/ha in [1] worked out at 0%; in [2] it was 90%; in test [3], 20%; in test [4], 20%; in [5], 90%; in [12], 70%. Besides, the pest or weed control at 250 g/ha worked out at 50% in test [13]; 30% in test [14]; 10% in [15]; 20% in test [16]; 40% in test [17]; 0% in test [18]. The pest or weed control at 250 g/ha in test [19] came out at 100%; in test [20], 50%; in test [21], 40%; in [22], 100%. The pest or weed control at 125 g/ha came out at 70% in [6]; 80% in test [7]; 10% in test [8]; 0% in [9]; 20% in test [10]; 70% in [11].

As to `CCc1cc(-c2ccc(Cl)cc2)ccc1C1=C(OC(C)=O)[C@@H]2CC[C@@H](C2)C1=O` [Compound P3], the pest or weed control at 250 g/ha worked out at 0% in test [1]; 70% in test [2]; 40% in test [3]; 60% in [4]; 80% in test [5]; 70% in test [12]. The pest or weed control at 250 g/ha in test [13] was 50%; in [14] it was 10%; in test [15] it was 30%; in test [16], 50%; in test [17], 60%; in [18], 0%. Also, the pest or weed control at 250 g/ha in [19] was 100%; in test [20], 80%; in [21], 90%; in test [22], 100%. In addition, the pest or weed control at 125 g/ha in [6] was found to be 90%; in test [7], 80%; in test [8], 80%; in [9], 90%; in test [10], 80%; in test [11], 80%.

`CCc1ccc(-c2ccc(Cl)cc2)cc1C1=C(O)[C@H]2CC[C@H](CC2)C1=O` [Compound T54, 3-(4′-chloro-4-ethylbiphen-3-yl)bicyclo[3.2.2]nonane-2,4-dione]: the pest or weed control at 250 g/ha in [1] is 40%; in test [2], 100%; in test [3], 90%; in test [4] it was 90%; in [5] it was 100%; in test [12], 100%. Further, the pest or weed control at 250 g/ha in test [13] came to 100%; in [14] it was 50%; in test [15], 70%; in test [16] it was 100%; in test [17], 90%; in [18], 0%. Moreover, the pest or weed control at 250 g/ha in test [19], in [20], in test [21] and in test [22] was 100% in each case. The pest or weed control at 125 g/ha in test [6] was determined as 100%; in test [7], 100%; in test [8], 70%; in [9], 90%; in test [10], 60%; in test [11], 100%.

For the compound `CCc1ccc(-c2ccc(Cl)cc2F)cc1C1=C(O)[C@H]2CC[C@H](C2)C1=O` (single isomer, unassigned) [Compound T41], the pest or weed control at 250 g/ha in [1] was found to be 0%; in test [2], 90%; in [3], 100%; in test [4], 60%; in test [5] it was 100%; in [12], 100%. Further, the pest or weed control at 250 g/ha is 100% in test [13]; 60% in test [14]; 90% in [15]; 100% in [16]; 100% in [17]; 0% in test [18]. In addition, the pest or weed control at 250 g/ha stood at 100% in test [19], 100% in test [20], 60% in [21] and 100% in test [22]. For the same compound, the pest or weed control at 125 g/ha in test [6] amounted to 100%; in [7], 100%; in test [8] it was 100%; in test [9] it was 80%; in test [10], 70%; in [11], 100%.
